One may read the IC50 as the concentration needed to halve the response being measured. A high value points to a need for much substance.

This assay addresses T1, human AhR (Homo sapiens, UniProt P35869).
T1 construct: INDIGO's Aryl Hydrocarbon Receptor (AhR) Reporter Cells include the luciferase reporter gene functionally linked to an AhR-responsive promoter
T1 sequence (P35869 11-848): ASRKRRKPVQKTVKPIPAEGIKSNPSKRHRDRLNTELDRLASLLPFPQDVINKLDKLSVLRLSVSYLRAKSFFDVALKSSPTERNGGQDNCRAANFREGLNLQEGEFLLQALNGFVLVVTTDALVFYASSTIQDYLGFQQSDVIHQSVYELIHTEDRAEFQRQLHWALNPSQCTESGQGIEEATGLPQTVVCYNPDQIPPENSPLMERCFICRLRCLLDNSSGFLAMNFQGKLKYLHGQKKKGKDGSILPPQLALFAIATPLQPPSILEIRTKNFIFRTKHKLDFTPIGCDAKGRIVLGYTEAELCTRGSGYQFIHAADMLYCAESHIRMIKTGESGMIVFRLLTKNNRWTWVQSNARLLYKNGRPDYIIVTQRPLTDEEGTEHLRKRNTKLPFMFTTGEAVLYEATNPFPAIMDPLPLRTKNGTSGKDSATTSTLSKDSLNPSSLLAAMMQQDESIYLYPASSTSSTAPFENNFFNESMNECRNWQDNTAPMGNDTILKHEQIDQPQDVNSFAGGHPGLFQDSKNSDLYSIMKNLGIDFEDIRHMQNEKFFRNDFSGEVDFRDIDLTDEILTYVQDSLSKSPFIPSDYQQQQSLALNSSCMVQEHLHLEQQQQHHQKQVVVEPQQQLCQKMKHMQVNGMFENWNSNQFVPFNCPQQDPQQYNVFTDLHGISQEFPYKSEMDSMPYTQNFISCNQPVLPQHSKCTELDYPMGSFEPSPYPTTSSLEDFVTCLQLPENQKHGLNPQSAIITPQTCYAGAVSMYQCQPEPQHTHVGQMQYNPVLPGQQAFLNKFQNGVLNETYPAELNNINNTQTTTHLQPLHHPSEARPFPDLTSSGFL
Kind of assay: INDIGO AhR Reporter Assay (luciferase reporter cells, antagonist mode). The format is cell-based. The settings on record: antagonist mode with 50 nM of VAF347 (AhR agonist); 22-24 hours incubation; luciferase RLU. From the text:
INDIGO's Aryl Hydrocarbon Receptor (AhR) Reporter Cells include the luciferase reporter gene functionally linked to an AhR-responsive promoter. Thus, quantifying changes in luciferase expression in the treated reporter cells provides a sensitive surrogate measure of the changes in AhR activity. The principle application of this reporter assay is in the screening of test samples to quantify any functional activity, either agonist or antagonist, that they may exert against human AhR. Reporter Cells incorporate the cDNA encoding beetle luciferase, a 62 kD protein originating from the North American firefly (Photinus pyralis). Luciferase catalyzes the mono-oxidation of D-luciferin in a Mg^2+-dependent reaction that consumes 02 and ATP as co-substrates, and yields as products oxyluciferin, AMP, PPi, CO2, and photon emission. Luminescence intensity of the reaction is quantified using a luminometer, and is reported in terms of Relative Light Units (RLU's). In brief, 200 μl of Reporter Cells was dispensed into wells of the assay plate and pre-incubated for 4-6 hours. Following the pre-incubation period, culture media were discarded and 200 µl/well of the prepared 1×-concentration treatment media were added. Following 22-24 hours of incubation, treatment media were discarded and Luciferase Detection Reagent was added. The intensity of light emission (in units of “Relative Light Units” (RLU)) from each assay well was quantified using a plate-reading luminometer. The assay was run as a competitive binding assay in the antagonist mode with 50 nM of VAF347, a known AhR agonist.
In Table 4, IC50 values are reported as A, B, C, or D. A represents an IC50 value of less than 100 nM. B represents an IC50 value of equal or greater than 100 nM and less than 500 nM. C represents an IC50 value of equal or greater than 500 nM and less than 1 μM. D represents an IC50 value of equal or greater than 1 μM.
Background: A reporter such as luciferase makes a cellular process visible.
The compound `CCN(CC)S(=O)(=O)c1cc(NC(=O)c2cc3cc(-c4ccccn4)cnc3s2)ccc1Cl` [Compound 144, N-[4-chloro-3-(N,N-diethylsulfamoyl)phenyl]-5-(pyridin-2-yl)-thieno[2,3-b]pyridine-2-carboxamide] returned a 50% inhibitory concentration (IC50) of 500 to 1000 nM.

`Cc1ccc(F)cc1-c1cc(NC(=O)c2cc3ncccc3cc2Cl)n(C)n1` [Compound 50, 6-Chloro-N-[3-(5-fluoro-2-methylphenyl)-1-methyl-1H-pyrazol-5-yl]quinoline-7-carboxamide] came in with an IC50 of under 100 nM.

`CCN(CC)S(=O)(=O)c1cc(NC(=O)c2cc3ncccc3cc2Cl)ccc1Cl` [Compound 34, 6-Chloro-N-(4-chloro-3-(N,N-diethylsulfamoyl)phenyl)quinoline-7-carboxamide] registered an IC50 of 100 to 500 nM.

For `Cc1ccccc1-c1cnc2cc(C(=O)Nc3ccc(C(F)(F)F)nc3)ccc2c1` [Compound 81, 3-(o-tolyl)-N-(6-(trifluoromethyl)pyridin-3-yl)quinoline-7-carboxamide], the IC50 was in the range of 100 to 500 nM.

Consider `Cn1nc(C(F)(F)F)cc1NC(=O)c1ccc2cc(-c3ccncc3)cnc2c1` [Compound 78, N-[1-methyl-3-(trifluoromethyl)-1-pyrazol-yl]-3-(pyridin-4-yl)quinoline-7-carboxamide], for which the half-maximal inhibitory concentration (IC50) fell in the range of 100 to 500 nM.

`Cn1nc(C(F)(F)F)cc1NC(=O)c1cc2ncccc2cc1Cl` [Compound 27, 6-Chloro-N-[1-methyl-3-(trifluoromethyl)-1H-pyrazol-5-yl]quinoline-7-carboxamide] had an IC50 of under 100 nM.

`CCN(CC)S(=O)(=O)c1cc(NC(=O)c2cc3cc(-c4ccc(F)cn4)cnc3s2)ccc1Cl` [Compound 151, N-[4-chloro-3-(N,N-diethylsulfamoyl)phenyl]-5-(5-fluoropyridin-2-yl)-thieno[2,3-b]pyridine-2-carboxamide] had an IC50 of over 1000 nM.

For the compound `O=C(Nc1ccc(C(F)(F)F)nc1)c1ccc2cc(-c3nccs3)cnc2c1` [Compound 83, 3-(thiazol-2-yl)-N-(6-(trifluoromethyl)pyridin-3-yl)quinoline-7-carboxamide], the 50% inhibitory concentration (IC50) lay within 500 to 1000 nM.

In the case of `Cc1ccc(-c2cnc3cc(C(=O)Nc4cc(C(F)(F)F)nn4C)ccc3c2)cc1` [Compound 62, N-[1-Methyl-3-(trifluoromethyl)-1H-pyrazol-5-yl]-3-(4-methylphenyl) quinoline-7-carboxamide], the IC50 fell in the range of 100 to 500 nM.

For the compound `Cn1nc(-c2ccccc2)cc1NC(=O)c1ccc2cc(-c3ccncc3F)cnc2c1` [Compound 125, 3-(3-fluoropyridin-4-yl)-N-(1-methyl-3-phenyl-1H-pyrazol-5-yl) quinoline-7-carboxamide], the 50% inhibitory concentration (IC50) was in the range of 100 to 500 nM.

On to `CCN(CC)S(=O)(=O)c1cc(NC(=O)c2cc3cc(-c4ccncc4)cnc3s2)ccc1Cl` [Compound 142, N-[4-chloro-3-(N,N-diethylsulfamoyl)phenyl]-5-(pyridin-4-yl)-thieno[2,3-b]pyridine-2-carboxamide], for which the IC50 was in the range of 100 to 500 nM.

The compound `Cc1ccccc1-c1cnc2cc(C(=O)Nc3cc(C(F)(F)F)nn3C)ccc2c1` [Compound 52, N-[1-methyl-3-(trifluoromethyl)-1H-pyrazol-5-yl]-3-(2-methylphenyl) quinoline-7-carboxamide] yielded a concentration for half-maximal inhibition (IC50) of 100 to 500 nM.

Compound `Cc1ccc(Cl)cc1-c1cc(NC(=O)c2cc3ncccc3cc2Cl)n(C)n1` [Compound 51, 6-Chloro-N-[3-(5-chloro-2-methylphenyl)-1-methyl-1H-pyrazol-5-yl]quinoline-7-carboxamide] had an IC50 of under 100 nM.

Compound `Cn1nc(C(F)(F)F)cc1NC(=O)c1ccc2cc(-c3ccc(F)cn3)cnc2c1` [Compound 101, 3-(5-fluoropyridin-2-yl)-N-(1-methyl-3-(trifluoromethyl)-1H-pyrazol-5-yl)quinoline-7-carboxamide] had an IC50 of under 100 nM.

Regarding `CN(C)S(=O)(=O)c1cc(NC(=O)c2cc3cc(-c4ccc(F)cc4)cnc3s2)ccc1Cl` [Compound 148, N-[4-chloro-3-(N,N-dimethylsulfamoyl)phenyl]-5-(4-fluorophenyl)-thieno[2,3-b]pyridine-2-carboxamide], the IC50 lay within 100 to 500 nM.
